SMILES strings stand for the structures. Calls of active or inactive are those of the source.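 How the source made its calls: active means half-maximal binding-loss concentration at or below 10 µM, response change across doses of 30% or more, acceptable curve fit; inactive means the rest.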

Sequence of GTPase HRas (Homo sapiens) (P01112 whole entry, looked up): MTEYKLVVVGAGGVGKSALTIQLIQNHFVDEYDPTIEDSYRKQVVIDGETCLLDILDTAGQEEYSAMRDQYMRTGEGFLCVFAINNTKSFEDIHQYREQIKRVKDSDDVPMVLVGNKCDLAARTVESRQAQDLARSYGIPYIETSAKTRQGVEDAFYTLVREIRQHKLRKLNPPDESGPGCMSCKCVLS

The first assay concerns the target GTPase HRas (Homo sapiens) (UniProt P01112). Description: inhibition of Bodipy-GTP binding to activated H-Ras – biochemical, multiplex bead flow cytometry, round 1, SAR follow-up (AID 588387). The note with it: GST-H-Ras beads, Bodipy-FL-GTP binding. Background: A flow cytometer gives signals particle by particle.
On to `CC1Cc2c(sc(NC(=S)NC(=O)c3ccccc3)c2C(=O)O)CO1` (configuration not stated), for which the EC50 was 47 nM.

In the case of `CC1(C)Cc2c(sc(NC(=S)NC(=O)c3cccc(F)c3)c2C(=O)O)CO1`, the EC50 is 278 nM.

As for `COc1cccc(C(=O)NC(=S)Nc2sc3c(c2C(=O)O)CC(C)(C)OC3)c1`, the EC50 was 33 nM.

Regarding `CC1(C)CCc2sc(NC(=S)NC(=O)c3ccccc3)c(C(=O)O)c2C1`, the concentration giving a half-maximal response (EC50) was 76 nM.

Consider `CC1(C)Cc2c(sc(NC(=S)NC(=O)c3ccc(Br)cc3)c2C(=O)O)CO1`, for which the EC50 is 260 nM.

On to `CC1(C)Cc2c(sc(NC(=S)NC(=O)c3ccccc3F)c2C(=O)O)CO1`, for which the EC50 is 51 nM.

`O=C(NC(=S)Nc1sc2c(c1C(=O)O)CCOC2)c1ccccc1`: the EC50 was 32 nM.

On to `CC1(C)Cc2c(sc(NC(=O)NC(=O)c3ccccc3)c2C(=O)O)CO1`, for which the EC50 was 151 nM.

With `CC1(C)Cc2c(sc(NC(=S)NC(=O)c3ccccc3Br)c2C(=O)O)CO1`, the EC50 was 45 nM.

Turning to `COc1ccc(C(=O)NC(=S)Nc2sc3c(c2C(=O)O)CC(C)(C)OC3)cc1`, the half-maximal effective concentration (EC50) is 145 nM.

As to `CC1(C)Cc2c(sc(NC(=S)NC(=O)c3ccccc3)c2C(=O)O)CO1`, the EC50 is 82 nM.

Staying with this assay, now noted: GST-H-Ras beads, Bodipy-FL-GTP binding, at 100 µM (top of the series).
Regarding `Cc1ccc(Nc2nc3sc4c(c3c(=O)o2)CCN(C)C4)cc1`, the “% response (remaining GTP binding)” value was “inactive”.

`CC(C)(C)OC(=O)c1c(NC(=S)NC(=O)c2ccccc2)sc2c1CCOC2`: the “% response (remaining GTP binding)” value was “inactive”.

Turning to `CN1CCc2c(sc(NC(=O)Nc3ccc(F)cc3)c2C(=O)O)C1`, the “% response (remaining GTP binding)” value is “inactive”.

In the case of `CCOC(=O)c1c(NC(=S)NC(=O)c2ccccc2)sc2ccccc12`, the “% response (remaining GTP binding)” value is “inactive”.

For the molecule `CCOC(=O)c1c(NC(=S)Nc2ccccc2)sc2c1CC(C)(C)OC2`, the “% response (remaining GTP binding)” value was “inactive”.

`CCOC(=O)c1c(NC(=O)Nc2ccc(C)cc2)sc2c1CCN(C)C2`: the “% response (remaining GTP binding)” value was “inactive”.

For `CCOC(=O)c1c(NC(=O)Nc2ccc(F)cc2)sc2c1CCN(C)C2`, the “% response (remaining GTP binding)” value is “inactive”.

Turning to `Cc1ccc(NC(=O)Nc2sc3c(c2C(=O)O)CCN(C)C3)cc1`, the “% response (remaining GTP binding)” value is “inactive”.

Consider `COC(=O)c1c(N)sc2c1CC(C)(C)OC2`, for which the “% response (remaining GTP binding)” value is “inactive”.

With `CC1(C)Cc2c(sc(NC(=S)NC(=O)c3cccc(Br)c3)c2C(=O)O)CO1`, the “% response (remaining GTP binding)” value was “inactive”.

As for `CCOC(=O)c1c(NC(=O)NC(C)(C)C)sc2c1CCN(C)C2`, the “% response (remaining GTP binding)” value was “inactive”.

Turning to `CN1CCc2c(sc3nc(Nc4ccc(F)cc4)oc(=O)c23)C1`, the “% response (remaining GTP binding)” value is “inactive”.

On to `COC(=O)c1c(NC(=S)NC(=O)c2ccccc2)sc2c1CC(C)(C)OC2`, for which the “% response (remaining GTP binding)” value was “inactive”.

Take `CC1(C)Cc2c(sc(NC(=O)Cc3ccccc3)c2C(=O)O)CO1`: the “% response (remaining GTP binding)” value was “inactive”.

Take `CC1(C)Cc2c(sc(NC(=S)Nc3ccccc3)c2C(=O)O)CO1`: the “% response (remaining GTP binding)” value was “inactive”.

As for `CCOC(=O)c1c(N)sc2ccccc12`, the “% response (remaining GTP binding)” value is “inactive”.

For orientation: EC50 means the midpoint of the concentration-response curve.
